Laboratory results taken from the OPERA property sets (Mansouri et al. 2018).

Conditions: not given

Compound | melting point [°C] | boiling point [°C] | log10 vapour pressure (mmHg) | ready biodegradability | log10 Koc (L/kg) | log10 Koa | log10 Henry constant (atm·m³/mol)
CC(C)CCC[C@@H](C)[C@H]1CC[C@H]2[C@@H]3CC=C4C=CCC[C@]4(C)[C@H]3CC[C@]12C | 80 | – | – | – | – | – | –
CC1(C)O[C@@H]2C[C@H]3[C@@H]4CCC5=CC(=O)C=C[C@]5(C)[C@@]4(F)[C@@H](O)C[C@]3(C)[C@]2(C(=O)CO)O1 | 293 | – | – | – | – | – | –
COc1ccccc1OCCNCC(O)COc1cccc2[nH]c3ccccc3c12 (stereo unspecified) | 114 | – | – | – | – | – | –
O=C(O)CCCCCBr | 35 | – | – | – | – | – | –
CCOc1ccccc1OS(=O)(=O)NC(O)=Nc1nc(OC)cc(OC)n1 | 145 | – | – | – | – | – | –
C=CCCCCCCCCCCC | -13 | 233 | -1.2 | – | – | – | –
COc1ccc(C=CC(=O)c2ccc(OC)cc2OC)cc1 | 97 | – | – | – | – | – | –
NC(=O)CI | 94.5 | – | – | not readily biodegradable | – | – | –
COc1cccc(C)c1C | 29 | 199 | – | – | – | – | –
O=c1c2ccccc2sc2ccccc12 | 209 | 373 | – | – | – | – | –
c1ccc2ncccc2c1 | -14.8 | 237 | -1.22 | readily biodegradable | 3.1 | – | –
Cc1c(C)c2ccccc2c2ccccc12 | 144 | – | – | – | – | – | –
O=C(O)CCCc1ccc(N(CCCl)CCCl)cc1 | 65 | – | – | – | – | – | –
Nc1ccc(S(=O)(=O)c2ccc(N)cc2)cc1 | 176 | – | – | – | – | – | –
CC1CCCC(C)N1C(=O)COC(=O)c1ccccc1 (stereo unspecified) | 118 | – | – | – | – | – | –
Cc1cc(C(C)C)ccc1O | 8.6 | 230 | – | – | – | – | –
C#CC(=O)OC | – | 104 | – | – | – | – | –
CC(C)(C)NSc1nc2ccccc2s1 | – | – | -6.34 | – | – | – | –
COc1ccc(C(=O)O)c(OC)c1 | 109 | – | – | – | – | – | –
OCC(Cl)(Cl)Cl | 19 | 152 | – | – | – | – | –
CN(C)c1ccc(C=O)cc1 | 74.5 | – | -2.43 | – | – | – | –
CCNc1nc(Cl)nc(NCC(=O)OCC)n1 | 228 | – | – | – | – | – | –

Compound | melting point [°C] | boiling point [°C] | log10 vapour pressure (mmHg) | ready biodegradability | log10 Koc (L/kg) | log10 Koa | log10 Henry constant (atm·m³/mol)
C#CCI | – | 115 | – | – | – | – | –
CNC(=O)O/N=C1\[C@@H](Cl)[C@@H]2C[C@H](C#N)[C@H]1C2 | 144 | – | – | – | – | – | –
O=C(O)c1cccc(Oc2ccccc2)c1 | 150 | – | – | – | – | – | –
Fc1ccc(N=C=S)cc1 | 27 | 228 | – | – | – | – | –
CC1CCCC(C)C1C (stereo unspecified) | – | 142 | – | – | – | – | –
OCCOCCOCCO | -7 | 285 | – | readily biodegradable | – | – | –
CC(CN1c2ccccc2Sc2ccccc21)N(C)C.Cl (stereo unspecified) | 228 | – | – | – | – | – | –
CCCCCCCCCCCCCCCCCCOC(=O)CCc1cc(C(C)(C)C)c(O)c(C(C)(C)C)c1 | – | – | – | not readily biodegradable | – | – | –
NNCc1ccccc1 | 26 | – | – | – | – | – | –
CCCCCCCCCCCC(=O)OC | 5.2 | 267 | -2.39 | readily biodegradable | – | – | –
CCC(=O)OC/C=C(\C)CCC=C(C)C | – | 253 | – | – | – | – | –
O=C(O)COc1cc(Cl)c(Cl)cc1Cl | 153 | – | – | – | 1.99 | – | –
CC(Oc1ccccc1Cl)C(=O)O (stereo unspecified) | 114 | – | – | – | – | – | –
CCCCCOCCCCC | -69 | 190 | -0.067 | – | – | 4.8 | –
CC(=O)CCCCO | – | 227 | – | – | – | – | –
OC(c1ccccc1)c1ccccc1 | 69 | 298 | -4.56 | readily biodegradable | 2.34 | – | –
CCOS(C)(=O)=O | – | 214 | -0.686 | – | – | – | –
CCCCCCCCSC#N | 105 | – | – | – | – | – | –
CCN(CC)CCOC(=O)C1(C2CCCCC2)CCCCC1.Cl | 165 | – | – | – | – | – | –
CC(C)(C)c1cccc([N+](=O)[O-])c1 | 2 | 254 | – | – | – | – | –
O=NN1CN2CN(C1)CN(N=O)C2 | 204 | – | – | readily biodegradable | – | – | –
CCCCCCCCCCCCCCCCCCCCCCCCCCCCCCCCCCCCC | – | 505 | – | readily biodegradable | – | – | –

Compound | melting point [°C] | boiling point [°C] | log10 vapour pressure (mmHg) | ready biodegradability | log10 Koc (L/kg) | log10 Koa | log10 Henry constant (atm·m³/mol)
CCCCC(CC)CO (stereo unspecified) | -70 | – | -0.867 | readily biodegradable | – | – | –
O=[N+]([O-])c1ccc(O)cc1O | 122 | – | – | – | – | – | –
CCNCCO | – | 170 | – | – | – | – | –
COc1ccc(CC#N)cc1OC | 62.8 | – | – | – | – | – | –
CCCCCCC=CCC(=O)O | 18 | – | – | – | – | – | –
O=C1c2cccc([N+](=O)[O-])c2C(=O)c2cccc([N+](=O)[O-])c21 | 385 | – | – | – | – | – | –
OCCCCCCCCCCCCCCO | 85.8 | – | – | – | – | – | –
N#CC#CC#N | 20.5 | – | – | – | – | – | –
FC1(F)C(Cl)=C(Cl)C(F)(F)C(F)(F)C1(F)F | -70 | 113 | – | – | – | – | –
COC(=O)[C@@H]1C2CCC(C[C@@H]1OC(=O)c1ccccc1)N2C (stereo partly specified) | 98 | – | -6.72 | – | – | – | –
C1=CCCC=CCCC=CCC1 | -9.25 | 240 | – | not readily biodegradable | – | – | –
Cn1ccc(=O)c2ccccc21 | 152 | – | – | – | – | – | –
O=C(O)c1ccc(Cl)c(Cl)c1 | – | – | – | not readily biodegradable | – | – | –
COc1cc(CCC(C)=O)ccc1O | 40.5 | – | – | – | – | – | –
CSC(C)C | -102 | 84.8 | 1.9 | – | – | – | –
CSCCC=O | – | 166 | – | – | – | – | –
COS(=O)(=O)OC | -27 | – | -0.169 | – | – | – | –
O=C=Nc1ccc(N=C=O)cc1 | 97.5 | 260 | – | – | – | – | –
Cc1cc(N)nc(C)n1 | 183 | – | – | – | – | – | –
COCCC(C)C | – | 91 | – | – | – | – | –
O=C1Nc2ccccc2CCc2ccccc21 | – | – | – | readily biodegradable | – | – | –
CC[N+](CC)(CCNC(=O)C(=O)NCC[N+](CC)(CC)Cc1ccccc1Cl)Cc1ccccc1Cl.[Cl-].[Cl-] | 198 | – | – | – | – | – | –

Compound | melting point [°C] | boiling point [°C] | log10 vapour pressure (mmHg) | ready biodegradability | log10 Koc (L/kg) | log10 Koa | log10 Henry constant (atm·m³/mol)
Oc1cccc2c1CCCC2 | 70 | 266 | – | – | – | – | –
CC(=O)Nc1nnc(S(N)(=O)=O)s1 | 260 | – | – | – | – | – | –
O=C(n1ccnc1)n1ccnc1 | 119 | – | – | – | – | – | –
CN1CC(C(=O)O)CC1=O (stereo unspecified) | 152 | – | – | – | – | – | –
CCCCCCCCCCN | 17 | 220 | -1 | readily biodegradable | – | – | –
Nc1cccc2cc3ccccc3cc12 | 116 | – | – | – | – | – | –
Nc1ccccc1C=O | 39 | – | – | – | – | – | –
Oc1cc(F)cc(F)c1F | 29 | – | – | – | – | – | –
c1ccc2c(c1)Nc1ccccc1O2 | 156 | – | – | – | – | – | –
BrCC(Br)c1ccccc1 (stereo unspecified) | 75 | – | -1.97 | – | – | – | –
CC(Cl)(Cl)C(=O)OCCOc1cc(Cl)c(Cl)cc1Cl | 49.5 | – | – | – | – | – | –
O=c1oc2ccccc2c(O)c1C1CCCc2ccccc21 (stereo unspecified) | 172 | – | -10.2 | – | – | – | –
C=CCC(C(=O)O)C(=O)O | 105 | – | – | – | – | – | –
Cc1cc(C)c(O)c(C)c1 | 73 | 220 | -1.76 | not readily biodegradable | – | – | –
CCCCCON=O | – | 104 | 0.598 | – | – | – | –
CCn1ccc2ccccc21 | 105 | 252 | – | – | – | – | –
COC(=O)C1(S(=O)(=O)c2ccccc2)CCCC1 | 56.5 | – | – | – | – | – | –
Cc1c(O)ccc(O)c1C | 224 | – | – | – | – | – | –
COc1cc(CCN)cc(OC)c1OC | 35.5 | – | – | – | – | – | –
Cc1nc2ccccc2nc1C | 105 | – | – | – | – | – | –
ClCCCCCCCCCCl | – | 260 | – | – | – | – | –
COS(=O)(=O)[O-].C[N+]1(C)CCN(CC(O)(c2ccccc2)C2CCCCC2)CC1 (stereo unspecified) | 205 | – | – | – | – | – | –

Compound | melting point [°C] | boiling point [°C] | log10 vapour pressure (mmHg) | ready biodegradability | log10 Koc (L/kg) | log10 Koa | log10 Henry constant (atm·m³/mol)
O=C(O)C(F)(F)C(F)(F)C(F)(F)C(F)(F)C(=O)O | 134 | – | – | – | – | – | –
CCc1ccc(C(c2ccc(CC)cc2)C(Cl)Cl)cc1 | 56 | – | – | – | – | – | –
O=C(O)c1ccsc1 | 138 | – | – | – | – | – | –
CCC(CC)C(C)(C)C | -99.3 | 134 | 1.05 | – | – | – | –
CCCCOCCC | – | 118 | – | – | – | – | –
CCCOC(C)C | – | 83 | – | – | – | – | –
O=C(O)c1ccccc1-c1ccccc1C(=O)O | 234 | – | – | readily biodegradable | – | – | –
CC(C)NCC(O)c1ccc(NS(C)(=O)=O)cc1 (stereo unspecified) | 207 | – | – | – | – | – | –
C=C(C)Br | -126 | 48.4 | – | – | – | – | –
CCCCCS(=O)(=O)O | 15.9 | – | – | – | – | – | –
CC(=O)NCCCCCC(=O)O | 104 | – | – | – | – | – | –
COC(=O)CCCBr | – | 186 | – | – | – | – | –
Oc1ccccc1Cl | 9.8 | 175 | 0.403 | not readily biodegradable | 2.6 | – | -4.95
CN1C(=O)CCC1=O | 71 | 234 | – | – | – | – | –
CC1(C)OC(=O)CC(=O)O1 | 94 | – | – | – | – | – | –
Brc1cccc(Br)c1Oc1ccccc1 | – | – | – | – | – | 8.12 | –
[O-][n+]1ccccc1S | 70.5 | – | – | – | – | – | –
O=C(C(F)(F)F)C(F)(F)F | -125 | -27.4 | 3.35 | – | – | – | –
CCOC(=O)C=[N+]=[N-] | -22 | – | 0.447 | – | – | – | –
CCCCCCOC(=O)CCCC | -63.1 | 226 | – | – | – | – | –
ClC1=CCCCC1 | – | 142 | – | – | – | – | –
Cc1cccc(I)c1 | -27.2 | 213 | – | – | – | – | –

Same assay, conditions: fish

Compound | log10 biotransformation half-life (days) | log10 BCF
C=CCCCCCCCCCCC | 0.73 | –
c1ccc2ncccc2c1 | -1.33 | 0.58
C1=CCCC=CCCC=CCC1 | 1.74 | 3.92
O=C(O)c1ccc(Cl)c(Cl)c1 | – | 0.36
Cc1cc(C)c(O)c(C)c1 | -1.3 | 0.93
Oc1ccccc1Cl | -0.38 | 1.35
